Patent US12365687B2 (Hoffmann-La Roche Inc., priority 2021, dated 2025)

Key:
[1] = target: human GABAA α2β2γ1 receptor (Homo sapiens (Human), UniProt P47869+Q8N1C3); experiment: Radioligand binding assay for γ1-containing GABAA subtypes, [3H]RO7239181 competition (α2β2γ1)
Procedure: (§1) The affinity of compounds at GABAA γ1 subunit-containing receptors was measured by competition for [^3H]RO7239181 (67.3 Ci/mmol; Roche) binding to membranes from HEK293F cells (ThermoFisher R79007) expressing human (transiently transfected) receptors of composition α5β2γ1, α2β2γ1, α1β2γ1.
(§2) Harvested pellets from HEK293F cells expressing the different GABAA receptor subtypes were resuspended in Mannitol Buffer pH 7.2-7.4 (Mannitol 0.29 M, Triethylamine 10 mM, Acetic acid 10 mM, EDTA 1 mM plus protease inhibitors (20 tablets Complete, Roche Diagnostics Cat. No. 05 056 489 001 per liter)), washed two times and then resuspended at 1:10 to 1:15 dilution in the same buffer. Cell disruption was performed by stirring the suspension in a Parr vessel #4637 at 435 psi for 15 minutes, and then the suspensions were centrifuged at 1000×g for 15 minutes at 4° C. (Beckman Avanti J-HC; rotor JS-4.2). The supernatant (S1) was transferred in a 2 l Schott flask and the pellet (P1) was resuspended with Mannitol Buffer up to 175 ml. The resuspended pellet was transferred into a 250 ml Corning centrifugal beaker and centrifuged at 1500×g for 10 minutes at 4° C. (Beckman Avanti J-HC; rotor JS-4.2). The supernatant (S1) was then transferred in the 2 l Schott flask and the pellet was discarded. The supernatants (S1) were centrifuged in 500 ml Beckman polypropylene centrifugal beaker at 15′000×g for 30 minutes at 4° C. (Beckman Avanti J-20 XP; rotor JLA-10.500). The pellet (P2) was resuspended with Mannitol Buffer 1:1 and frozen at −80° C. The supernatant (S2) was centrifuged in 100 ml Beckman polypropylene centrifugal tubes at 48000×g for 50 minutes at 4° C. (Beckman Avanti J-20 XP; rotor JA-18). The supernatant (S3) was discarded and the pellet (P3) was resuspended with 1:1 Mannitol Buffer. The P2 and P3 protein concentration was determined with the BIORAD Standard assay method with bovine serum albumin as standard and measured on the NANO-Drop 1000. The membrane suspension was aliquots (500 μl per tube) and stored at −80° C. until required.
(§3) Membrane homogenates were resuspended and polytronised (Polytron PT1200E Kinematica AG) in Potassium Phosphate 10 mM, KCl 100 mM binding buffer at pH 7.4 to a final assay concentration determined with a previous experiment.
(§4) Assays were incubated to equilibrium for 1 hour at 4° C. and then, membranes were filtered onto unifilter (96-well white microplate with bonded GF/C filters preincubated 20-50 minutes in 0.3% Polyethylenimine) with a Filtermate 196 harvester (Packard BioScience) and washed 4 times with cold Potassium Phosphate 10 mM pH 7.4, KCl 100 mM binding buffer. After anhydrousing, filter-retained radioactivity was detected by liquid scintillation counting. Ki values were calculated using Excel-Fit (Microsoft) and are the means of two determinations.

[2] = target: α2β2γ1 GABAA receptor subtype (Homo sapiens (Human), UniProt P47869+Q8N1C3); experiment: Two-electrode voltage clamp electrophysiology in Xenopus oocytes expressing GABAA receptors (modulation of GABA EC20 current); format: cell-based; conditions: for Efficacy (GABA)%: % modulation of GABA EC20 = 100*(Fold increase-1), α2β2γ1 oocytes, compound at approx. 30-fold Ki; for Fold increase h-GABA-A α2β2γ1 oocyte @ 30-fold Ki: Xenopus oocytes expressing α2β2γ1, compound at approx. 30-fold its Ki α2β2γ1, GABA EC20 current
Procedure: Xenopus laevis oocytes at maturation stages V-VI were used for the expression of cloned mRNA encoding GABAA receptor subunits. Oocytes ready for RNA micro-injection were bought from Ecocyte, Castrop-Rauxel, Germany and stored in modified Barth's medium (composition in mM: NaCl 88, KCl 1, NaHCO3 2.4, HEPES 10, MgSO4 0.82, CaNO3 0.33, CaCl2 0.33, pH=7.5) at 20° C. until the experiment.
Oocytes were plated in 96-well plates for microinjection using the Roboinject automated instrument (MultiChannelSystems, Reutlingen, Germany). Approximately 50 nL of an aqueous solution containing the RNA transcripts for the subunits of the desired GABAA receptor subtype was injected into each oocyte. […] Oocytes were kept in modified Barth's medium (composition in mM: NaCl 88, KCl 1, NaHCO3 […], HEPES 10, MgSO4 0.82, CaNO3 0.33, CaCl2 0.33, pH=7.5) at 20° C. until the experiment.
Electrophysiological experiments were performed using the Roboocyte instrument (MultiChannelSystems, Reutlingen, Germany) on days 3 to 5 after the micro-injection of mRNA. During the experiment the oocytes were constantly superfused by a solution containing (in mM) NaCl 90, KCl 1, HEPES 5, MgCl2 1, CaCl2 1 (pH 7.4). Oocytes were impaled by two glass microelectrodes (resistance: 0.5-0.8 MΩ) which were filled with a solution containing KCl 1M+K-acetate 1.5 M and voltage-clamped to −80 mV. The recordings were performed at room temperature using the Roboocyte two-electrode voltage clamp system (Multichannelsystem). After an initial equilibration period of 1.5 min GABA was added for 1.5 min at a concentration evoking approximately 20% of a maximal current response (EC20). After another rest interval of 2.5 min GABA was again added evoking a response of similar amplitude and shape. […] Current traces were recorded at a digitization rate of 10 Hz during and shortly before and after the GABA application.
Each compound and concentration was tested on at least 3 oocytes. Different oocytes were used for different compound concentrations.
For the analysis, the digitized current traces of the first and second GABA response were superimposed and, if necessary, rescaled to equal maximal amplitudes. The ratio between the two responses during the time interval of test compound application was calculated point by point. The extremum of the resulting “ratio trace” was taken as the efficacy (“Fold increase”) of the compound expressed as “% modulation of GABA EC20” (100*(Fold increase-1)).

[3] = target: human GABAA α1β3γ2 receptor (Homo sapiens (Human), UniProt P14867+P18507); experiment: Radioligand binding assay for γ2-containing GABAA subtypes, [3H]Flumazenil competition (α1β3γ2); conditions: for γ2/γ1 Selectivity Ratio: Ki α1β3γ2 (nM)/Ki α2β2γ1 (nM); for LogSel: Log[Ki α1β3γ2 (nM)/Ki α2β2γ1 (nM)]
Procedure: The affinity of compounds at GABAA γ2 subunit-containing receptors was measured by competition for [^3H]Flumazenil (81.1 Ci/mmol; Roche) binding to HEK293F cells expressing human (transiently transfected) receptors of composition α1β3γ2.
Harvested pellets from HEK293F cells expressing the different GABAA γ2 receptor subtypes were resuspended in Mannitol Buffer pH 7.2-7.4 and processed as described above for the cells expressing the GABAA γ1 subunit-containing receptors.
Assays were incubated to equilibrium for 1 hour at 4° C. and harvested onto GF/C uni-filters (Packard) by filtration using a Packard harvester and washing with ice-cold wash buffer (50 mM Tris; pH 7.5). After anhydrousing, filter-retained radioactivity was detected by liquid scintillation counting. Ki values were calculated using Excel-Fit (Microsoft) and are the means of two determinations.

[4] = target: human GABAA α5β2γ1 receptor (Homo sapiens (Human), UniProt P31644+Q8N1C3); experiment: Radioligand binding assay for γ1-containing GABAA subtypes, [3H]RO7239181 competition (α5β2γ1)
Procedure: as §1, §2, §3, §4

[5] = Ki h-GABAA α2β2γ1, [3H]RO7239181 competition binding, human GABAA α2β2γ1
[6] = Ki h-GABAA α2β2γ1, displacement of [3H]RO7239181, membranes of HEK293F cells expressing human receptors, means of two determinations

SMILES	Ki [1, 5]	Ki [1, 6]	Efficacy (GABA)% [2]	Fold increase h-GABA-A α2β2γ1 oocyte @ 30-fold Ki [2]	Ki [3]	γ2/γ1 Selectivity Ratio [3]	LogSel [3]	Ki [4]
C[C@@H]1N=C(c2c(F)cccc2F)c2c(ccc(Cl)c2Cl)-n2nc(C(=O)N3CC[C@H](O)C3)nc21 [Example 43, [(4S)-7,8-dichloro-6-(2,6-difluorophenyl)-4-methyl-4H-[1,2,4]triazolo[1,5-a][1,4]benzodiazepin-2-yl]-[(3S)-3-hydroxypyrrolidin-1-yl]methanone]	4.7 nM	4.75 nM	71%	1.71	837 nM	176.3	2.25	1.26 nM
C[C@@H]1N=C(c2ncccc2F)c2c(ccc(C(F)(F)F)c2Cl)-n2nc(C(=O)N3CCS(=O)(=O)CC3)nc21 [Example 124, [(4S)-7-chloro-6-(3-fluoro-2-pyridyl)-4-methyl-8-(trifluoromethyl)-4H-[1,2,4]triazolo[1,5-a][1,4]benzodiazepin-2-yl]-(1,1-dioxo-1,4-thiazinan-4-yl)methanone]	26.2 nM	26.2 nM	145%	2.45	14400 nM	547.2	2.74	6.32 nM
C[C@@H]1N=C(c2c(F)cccc2F)c2c(ccc(Cl)c2Cl)-n2nc(C(N)=O)nc21 [Example 35, (4S)-7,8-dichloro-6-(2,6-difluorophenyl)-4-methyl-4H-[1,2,4]triazolo[1,5-a][1,4]benzodiazepine-2-carboxamide]	6.5 nM	6.53 nM	67%	1.67	778 nM	119.1	2.08	0.73 nM
C[C@@H]1N=C(c2ncccc2F)c2c(ccc(C(F)(F)F)c2Cl)-n2nc(C(=O)NCCO)nc21 [Example 138, (4S)-7-chloro-6-(3-fluoro-2-pyridyl)-N-(2-hydroxyethyl)-4-methyl-8-(trifluoromethyl)-4H-[1,2,4]triazolo[1,5-a][1,4]benzodiazepine-2-carboxamide]	89.6 nM	89.6 nM	204%	3.04	> 30000 nM	334.8	2.52	17.1 nM
C[C@@H]1N=C(c2c(F)cccc2F)c2c(ccc(C(F)(F)F)c2Cl)-n2nc(C(=O)NC[C@@H](C)O)nc21 [Example 105, (4S)-7-chloro-6-(2,6-difluorophenyl)-N-[(2R)-2-hydroxypropyl]-4-methyl-8-(trifluoromethyl)-4H-[1,2,4]triazolo[1,5-a][1,4]benzodiazepine-2-carboxamide]	13.9 nM	13.9 nM	98%	1.98	5130 nM	368.4	2.57	5.05 nM
COC1CN(C(=O)c2cn3c(n2)CN=C(c2c(F)cccc2F)c2c-3ccc(Cl)c2Cl)C1 [Example 2, (7,8-dichloro-6-(2,6-difluorophenyl)-4H-benzo[f]imidazo[1,2-a][1,4]diazepin-2-yl)(3-methoxyazetidin-1-yl)methanone]	6.5 nM	6.5 nM	42%	1.42	255 nM	39.3	1.59	1.26 nM
C[C@@H]1N=C(c2c(F)cccc2F)c2c(ccc(Cl)c2Cl)-n2nc(C(=O)N3CC(O)C3)nc21 [Example 25, [(4S)-7,8-dichloro-6-(2,6-difluorophenyl)-4-methyl-4H-[1,2,4]triazolo[1,5-a][1,4]benzodiazepin-2-yl]-(3-hydroxyazetidin-1-yl)methanone]	4 nM	3.98 nM	63%	1.63	688 nM	172.8	2.24	1.44 nM
Cc1c(C(=O)NCCO)nc2n1-c1ccc(C(F)(F)F)c(Cl)c1C(c1ncccc1F)=N[C@H]2C [Example 154, (4S)-7-chloro-6-(3-fluoro-2-pyridyl)-N-(2-hydroxyethyl)-1,4-dimethyl-8-(trifluoromethyl)-4H-imidazo[1,2-a][1,4]benzodiazepine-2-carboxamide]	68.7 nM	68.7 nM	191%	2.91	11400 nM	166.6	2.22	23 nM
C[C@@H]1N=C(c2c(F)cccc2F)c2c(ccc(C(F)(F)F)c2Cl)-n2nc(C(=O)NCC#N)nc21 [Example 110, (4S)-7-chlor-N-(cyanomethyl)-6-(2,6-difluorophenyl)-4-methyl-8-(trifluoromethyl)-4H-[1,2,4]triazolo[1,5-a][1,4]benzodiazepine-2-carboxamide]	12.1 nM	12.1 nM	119%	2.19	2480 nM	205.1	2.31	2.64 nM
